Laboratory results taken from article PMC11928621 (Nature Communications, 2025).
Counter-ions that a name gives are not always drawn. Values belong to the molecule of their own block, whether it stands above or below them.

Legend:
LYCHOS = biological target: T1, LYCHOS (Homo sapiens, UniProt Q7Z3F1); assay: SPR Kd and cryo-EM structure of the complex; format: binding
T1 sequence (Q7Z3F1 1-870): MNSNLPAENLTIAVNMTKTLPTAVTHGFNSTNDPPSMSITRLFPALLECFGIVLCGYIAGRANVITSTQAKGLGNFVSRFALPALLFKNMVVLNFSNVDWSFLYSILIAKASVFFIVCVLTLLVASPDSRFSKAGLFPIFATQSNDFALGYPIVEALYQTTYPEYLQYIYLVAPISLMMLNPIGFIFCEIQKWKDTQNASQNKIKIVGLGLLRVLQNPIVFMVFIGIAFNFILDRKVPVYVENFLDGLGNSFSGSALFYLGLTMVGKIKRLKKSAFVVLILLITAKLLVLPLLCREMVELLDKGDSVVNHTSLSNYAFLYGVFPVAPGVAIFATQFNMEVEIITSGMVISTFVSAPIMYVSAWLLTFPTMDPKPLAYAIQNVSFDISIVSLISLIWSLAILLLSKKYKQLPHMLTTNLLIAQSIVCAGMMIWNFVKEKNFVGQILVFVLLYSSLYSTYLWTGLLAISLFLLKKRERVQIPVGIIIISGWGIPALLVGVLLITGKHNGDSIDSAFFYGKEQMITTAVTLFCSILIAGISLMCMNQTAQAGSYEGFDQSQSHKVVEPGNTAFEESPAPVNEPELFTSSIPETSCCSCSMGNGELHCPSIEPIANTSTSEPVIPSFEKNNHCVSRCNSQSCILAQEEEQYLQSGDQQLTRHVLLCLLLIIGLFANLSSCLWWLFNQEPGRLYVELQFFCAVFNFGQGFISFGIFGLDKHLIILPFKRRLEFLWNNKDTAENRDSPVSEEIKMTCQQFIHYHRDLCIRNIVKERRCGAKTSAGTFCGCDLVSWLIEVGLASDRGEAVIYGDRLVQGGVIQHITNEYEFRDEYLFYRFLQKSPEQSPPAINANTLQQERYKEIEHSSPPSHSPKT

cryo-EM structure = biological target: the molecule itself; assay: cryo-EM structure

Kd (LYCHOS): ~150 µM
Molecule: O=S(=O)(O)Oc1c[nH]c2ccccc12 [IS, indoxyl sulfate]

B1: human LYCHOS (lysosomal cholesterol signaling protein), C-terminal FLAG and 10×His tags (natural protein, UniProt Q7Z3F1 1-870, looked up)
chain: T1 sequence (Q7Z3F1 1-870)
modifications: N-acetylglucosamine linked to Asn309
stoichiometry N (cryo-EM structure): 2
